Source: article PMC3145672, “X-Ray Structure Reveals a New Class and Provides Insight into Evolution of Alkaline Phosphatases” (PLoS ONE, 2011)

Target: T1, SPAP (Sphingomonas sp., UniProt A1YYW7)
T1 construct: gene phoK; recombinant in E. coli, Ni-NTA purified; precursor 559 residues, predicted signal peptide 1-19; residues 31-556 visible in crystal; active monomer, 58 kD by SEC
T1 sequence (A1YYW7 20-559): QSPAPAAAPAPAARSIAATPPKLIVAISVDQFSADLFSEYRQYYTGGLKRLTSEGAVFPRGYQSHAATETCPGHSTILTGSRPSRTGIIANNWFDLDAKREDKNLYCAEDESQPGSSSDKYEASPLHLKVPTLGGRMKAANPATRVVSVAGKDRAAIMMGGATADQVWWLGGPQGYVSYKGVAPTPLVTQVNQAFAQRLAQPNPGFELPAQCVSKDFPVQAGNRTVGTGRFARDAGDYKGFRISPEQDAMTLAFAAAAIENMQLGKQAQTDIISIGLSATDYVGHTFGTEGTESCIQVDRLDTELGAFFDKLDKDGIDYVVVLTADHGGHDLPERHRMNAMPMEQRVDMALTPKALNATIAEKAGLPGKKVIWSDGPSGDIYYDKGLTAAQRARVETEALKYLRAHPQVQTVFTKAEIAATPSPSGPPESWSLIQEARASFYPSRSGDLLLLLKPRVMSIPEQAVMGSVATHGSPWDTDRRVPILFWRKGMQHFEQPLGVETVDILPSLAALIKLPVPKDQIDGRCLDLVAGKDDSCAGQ
Assay: release of pNP at […] nm
Format: biochemical
Details: pH 8.5, room temperature; size exclusion chromatography fraction

With `O=[N+]([O-])c1ccc(OP(=O)(O)O)cc1` [pNPP] the “release of pNP at 405 nm” value was “Catalytic activity of eluted SPAP fraction was checked, at room temperature”.
